Reference: publication PMC9131456, “Structure-Based Discovery of Lipoteichoic Acid Synthase Inhibitors” (Journal of Chemical Information and Modeling, 2022)

Key:
[1] = system: S. aureus (strain Newman); assay: Antimicrobial microdilution broth assay (growth inhibition); assay type: cell-based; settings: for IC50: S. aureus strain Newman growth, OD600nm after 20 h at 37 °C, MH2 broth, mean ± s.e.m., n = 3
Procedure: All the compounds tested in this study were dissolved in dimethyl sulfoxide (DMSO) at an initial stock concentration of 20 mM and stored at −20 °C. These compounds were tested for their antimicrobial activity using the microdilution broth method[66] following the protocol described by Richter et al.[30] Briefly, overnight cultures of S. aureus (strain Newman) grown at 37 °C in cation-adjusted Mueller Hinton II (MH2) broth were adjusted to an OD600nm of 0.6 before back-diluted with a factor of 1:2000 with the same broth. After that, 200 μL of the diluted bacterial culture were dispensed into each well of 96-well plates supplemented with the compounds to the desired concentrations. The plates were then sealed with a moisture membrane barrier and incubated statically for 20 h at 37 °C. After that, the OD600nm values of the cultures in each well were measured using a CLARIOstar microplate reader (BMG Labtech). The procedures for the potentiation assays were by large the same as described above with some variations. In such assays, MRSA strain COL was grown in the 96-well plates supplemented with different concentrations of compound 9 with methicillin, carbenicillin, or polymyxin B in a checkerboard format. Their synergistic effects were quantified by OD600nm measurements using a CLARIOstar microplate reader (BMG Labtech).

[2] = target: T1, eLtaS (Staphylococcus aureus, UniProt Q2G093); assay: Differential scanning fluorimetry (DSF) of eLtaS; assay type: binding, S. aureus
T1 construct: LtaS is a transmembrane protein with a large extracellular catalytic domain (denoted as eLtaS); His-tag; made in house; host or cells: E. coli (Rosetta; plasmid pProEX-eLtaS from strain ANG571)
Procedure: DSF assays were performed on eLtaS using the CFX Connect RT-PCR system (Bio-rad) using the protocol described previously.[43] Solutions containing 5 μM eLtaS protein in DSF buffer (25 mM Trizma-HCl, pH 7.5, 100 mM NaCl, 10% glycerol, 1 mM EDTA, 20× SYPRO Orange) with compounds at the appropriate concentrations were dispensed onto 96-well PCR plates in triplicate. The plates were sealed with Microseal “B” PCR Plate Sealing Film (Bio-rad) prior to the DSF run. The emitted fluorescence at 568 nm was measured from 25 to 65 °C at a step ramp rate of 0.5 °C every 30 s. Prism GraphPad v.5 was used for curve fitting, and the melting temperature Tm for each curves was derived from the Boltzmann equation.

[3] = system: LTA production in S. aureus (strain RN4220); assay: Western blot (immunoblotting) of LTA in S. aureus cell extracts; assay type: cell-based; settings: for LTA production: Western blot of S. aureus cell extracts, 10 μM in Figure S14, 100 μM for compound 8
Procedure: The procedures of LTA detection using Western Blot had previously been reported by Gründling et al.[52] To determine the effect of the compounds on LTA production, 10 mL cultures of S. aureus (strain RN4220) in MH2 broth were incubated in an orbital shaker at 37 °C with either the compounds or DMSO. When the control cultures had reached an OD600nm ∼ 1, the bacteria were pelleted and the OD600nm of the cultures normalized by resuspension with the appropriate amount of MH2 broth. Subsequently, 1 mL from each cultures was mixed with 0.5 mL of 0.1 mm glass beads, and the bacteria were lyzed by vortexing at 4 °C for 45 min. After lysis, glass beads were removed by centrifugation at 200g, and the supernatants were transferred to a new tube. The membrane-associated LTA from each culture were pelleted by an additional centrifugation step of the supernatant at 16,000g for 15 min before resuspension in 30 μL of 2× SDS. The samples were boiled at 80 °C for 20 min, and the solubilized fractions were loaded onto 15% SDS-polyacrylamide gels prior to electrophoresis at 120 V for 1.5 h. The LTA on the gels were electrotransferred onto FL-immobilon PVDF membranes at 25 V for another 1.5 h. After the electrotransfer, the membranes were blocked with 5% skimmed milk for 1 h and incubated with the antimouse LTA antibody (clone G43J, Thermo Fisher Scientific; 1:1000 dilution) overnight at 4 °C. After washing, the membranes were incubated with antimouse IRDye 680RD (1:10,000 dilution) for 1 h, washed, and visualized using the Odyssey CLx Imaging System.

[4] = target: T2, wild-type eLtaS (Staphylococcus aureus, UniProt Q2G093); assay: Isothermal titration calorimetry, wild-type eLtaS; assay type: binding, S. aureus; settings: ITC; for Kd: 25 °C, wild-type eLtaS titrated into 10 μM inhibitor
T2 construct: LtaS is a transmembrane protein with a large extracellular catalytic domain (denoted as eLtaS); His-tag; made in house; host or cells: E. coli (Rosetta; plasmid pProEX-eLtaS from strain ANG571)
Procedure: Each of the eLtaS proteins were purified from 6 L of E. coli cultures that were grown with aeration in LB medium supplemented with 200 μg/mL of carbenicillin and 34 μg/mL of chloramphenicol at 37 °C. When the cultures reached an OD600nm of about 0.6, protein expression was induced with 1 mM IPTG final concentration at 21 °C overnight. Later, the bacteria were harvested by centrifugation at 11,899g, and the bacterial pellets were resuspended with lysis buffer (50 mM Trizma-HCl, pH 7.5, 300 mM NaCl, 5% glycerol, 10 mM imidazole, 5 mM β-mercaptoethanol). The bacterial pellets were lyzed by three passages through a high-pressure emulsifier, and the lysates were centrifuged at 47,596g for 30 min at 4 °C. The resulting supernatants containing the His-tagged eLtaS proteins were filtered with a 0.22 μm filter before being loaded onto a 5 mL Ni-NTA column using an ÄKTApure protein purification system. The bound proteins were subsequently washed with lysis buffer, eluted using the elution buffer (50 mM Trizma-HCl, pH 7.5, 300 mM NaCl, 5% glycerol, and 300 mM imidazole), and dialyzed twice using the dialysis buffer [25 mM Trizma-HCl, pH 7.5, 100 mM NaCl, 10% glycerol, 1 mM ethylenediaminetetraacetic acid (EDTA)]. After dialysis, protein purity was confirmed to be >90% using SDS-PAGE. Proteins were then concentrated, snap-frozen in liquid N2, and stored at −80 °C prior to usage. All four eLtaS proteins were subjected to circular dichroism analysis, and their exact masses were determined using MS.
The thawed eLtaS proteins were dialyzed using D-Tube Dialyzer Mini (EMD Millipore) in 20 mM Trizma-HCl pH 7.5, 100 mM NaCl with Chelex 100 (Sigma-Aldrich) for 1.5 h twice on the same day prior to the ITC experiments. After dialysis, the eLtaS proteins were centrifuged at 20,000g at 10 °C for 10 min. The supernatants were transferred to new microcentrifuge tubes and diluted to 100 μM using the same buffer as above with an addition of 0.1% (v/v) DMSO. Meanwhile, the eLtaS inhibitors were diluted to 10 μM using the same buffer and maintaining 0.1% (v/v) DMSO. The eLtaS proteins were titrated into the main cell containing the inhibitors using a VP-ITC at 25 °C. The injection parameters were set as follows: a reference power of 15 μcal/s, an initial injection of 3 μL over a duration of 3.6 s, and then subsequent injections of 10 μL over a duration of 12 s. All injections were spaced with 240 s with a filter period of 2 s. Data were first analyzed in NITPIC[69] for baseline calculations and then fit for thermodynamic parameters using the OneSite model in Origin 7.0 software.

[5] = Staphylococcus aureus, NEWMAN, 20 h

T2 sequence (Q2G093 218-646): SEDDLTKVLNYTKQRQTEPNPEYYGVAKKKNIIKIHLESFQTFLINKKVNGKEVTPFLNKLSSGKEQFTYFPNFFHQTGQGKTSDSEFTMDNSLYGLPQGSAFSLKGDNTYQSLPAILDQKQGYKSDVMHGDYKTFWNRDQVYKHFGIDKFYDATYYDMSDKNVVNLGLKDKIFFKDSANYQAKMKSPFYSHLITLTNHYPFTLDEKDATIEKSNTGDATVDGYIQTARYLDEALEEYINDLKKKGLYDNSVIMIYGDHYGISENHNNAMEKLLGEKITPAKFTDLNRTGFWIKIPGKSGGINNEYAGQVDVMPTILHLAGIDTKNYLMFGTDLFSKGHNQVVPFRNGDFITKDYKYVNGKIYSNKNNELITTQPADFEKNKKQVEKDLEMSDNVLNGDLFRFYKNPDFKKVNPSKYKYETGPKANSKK
T1 sequence (Q2G093 218-646): as above

SMILES | IC50 [1] | IC50 [1, 5] | improvement in antimicrobial potency ([1]; compound 4 compared with 1771, S. aureus growth) | shift of the melting temperature of eLtaS ([2]; DSF, 5 μM eLtaS, across the range of concentrations tested) | LTA production [3] | LTA production ([3]; listed as compound 4) | Kd [4] | binding enthalpy ([4]; wild-type eLtaS, compared with 1771) | decrease in antimicrobial potency compared with compound 8 ([1]; S. aureus growth) | direct binding to eLtaS ([2]; using ITC and DSF, DSF at 100 μM compound) | electrophoretic mobility of the LTA extracted from treated S. aureus ([3]; Western blot, 100 μM compound)
O=C(COC(=O)c1cn(-c2ccccc2)nc1-c1cccs1)Nc1nnc(-c2ccccc2)o1 [Compound 4] | 4.06 ± 0.4 µM | 4.1 µM | 4 fold | shifted the melting temperature of eLtaS more so than 1771 | able to reduce LTA production | decrease LTA production in a dose-dependent manner | 0.365 ± 0.0068 µM | more exothermic than that of 1771 |  |  | 
S=C(Nc1ccc(Cl)cc1)Nc1ccc(Sc2nc3ccccc3[nH]2)cc1 [Compound 9] | 117 µM | 117 µM |  |  |  |  | 0.283 µM |  | 4 fold | binds directly to eLtaS | smearing effect
